These results are taken from patent US11752125B2, “Anti-neuroinflammatory and protective compounds in Achillea fragrantissima” (THE STATE OF ISRAEL MINISTRY OF AGRICULTURE & RURAL …, priority 2013, dated 2023).

SMILES strings stand for the structures.

One assay concerns CREB. Briefly: Aβ25-35-induced CREB phosphorylation in N2a cells (ELISA). In kind it is cell-based. The note with it: concomitant treatment 30 min. How it is done:
7. Measure the amount of total and phosphorylated CREB in cell lysates of N2a cells, by ELISA using the PathScan total CREB sandwich ELISA kit (Cell Signaling TECHNOLOGY) or the PathScan phosoho-CREB (Ser133) sandwich ELISA kit (Cell Signaling TECHNOLOGY), respectively. 8. Determine the optical density at 450 nm using a microplate reader.
N2a cells were treated concomitantly with Aβ25-35 and TTF for 30 min. Cells were extracted and the levels of phosphorylated (FIG. 15 A) or total (FIG. 15 B) CREB were determined by specific ELISA kits. The results are the mean±SEM of one experiment (n=2).
N2a cells were treated concomitantly with Aβ25-35 and AcA for 30 min. Cells were extracted and the levels of phosphorylated CREB were determined by A specific ELISA kit. The results are the mean±SEM of one experiment (n=2).
In general terms: In an ELISA, binding on a coated surface is turned into a signal by an enzyme label.

The next assay deals with IL-1β. In words: IL-1β secretion from LPS-stimulated microglial cells (ELISA). In kind it is cell-based, rat. The note with it: LPS 100 ng/mL, 24 h. How it is done:
Cultures of primary rat microglial cells were prepared from cerebral cortices of 1-2 day-old neonatal Wistar rats as described. Microglial cells were seeded at 24-well plastic plates at 1×10^5/well in RPMI-1640 containing 2% FBS, 2 mM glutamine, 100 U/mL penicillin, 100 µg/mL streptomycin, 1 mM sodium pyruvate, and 50 μM β-mercaptoethanol. Cells were cultured for 36 h before treatments. The research was conducted in accordance with the NIH guide for the care and use of laboratory animals, and was approved by the Institutional Animal Care and Use Committee of The Volcani Center, Agricultural Research Organization (IL-135/07, approval date Apr. 11, 2007). All efforts were made to minimize animal suffering, and to reduce the number of animals used.
For IL-1β measurements, 3.5×10^4 cells/well were plated on a 24-well tissue culture plate. After 24 h of incubation in DMEM containing 10% FBS, cells were stimulated with LPS (100 ng/mL) and treated with different concentrations of achillolide A. Conditioned media were collected twenty four hours later, and were tested with a rat IL1β ELISA kit (Novus Biologicals; CO, USA), according to the manufacturer's instructions.
2. Plate microglial cells (3.5×10^4 cells/well) on a 24-well tissue culture plate, in DMEM containing 10% FBS, 2 mM glutamine, 100 U/ml penicillin and 100 micrograms/mL streptomycin;
Microglial cells were treated with different concentrations of TTF, followed by stimulation with LPS (100 ng/mL). After 24 h, conditioned media were collected and tested for cytokine levels by ELISA. Cell viability was determined using the crystal violet assay (FIG. 9C). Values represent the means±SEM (n=4 for each treatment).
Microglial cells were treated with 20 μg/mL of achillolide A, followed by stimulation with LPS (4.5 ng/mL). After 5 h the levels of the indicated transcripts were measured by quantitative real-time PCR and the relative quantity (RQ) of the different transcripts were determined. […] The results are expressed as percentages relative to LPS-stimulated cells. […]

Take `COc1cc(-c2oc3cc(OC)c(OC)c(O)c3c(=O)c2O)ccc1O` [TTF, 3,5,4′-trihydroxy-6,7,3′-trimethoxyflavone]: the “effect on Aβ25-35-induced phosphorylation of CREB” value in the assay with CREB is reported as “significantly inhibited”. In addition, in the assay on IL-1β, the “effect on LPS-elicited IL-1β secretion” value was “markedly inhibited”.

Regarding `C=C1CCC2=C(CO)C(=O)O[C@H]2/C=C(\C)[C@H](OC(C)=O)CC1=O` [achillolide A], the “effect on Aβ25-35-induced phosphorylation of CREB” value in the assay with CREB was “down-regulates”. Besides, the “inhibition of IL-1β secretion” value in the assay on IL-1β turned out to be 59%.
